Measurements from patent US20240374738A1, “BIFUNCTIONAL COMPOUND CAPABLE OF DEGRADING RECEPTOR TYROSINE KINASE AND APPLICATION THEREOF” (TAIBIDI PHARMACEUTICAL TECHNOLOGY (SHIJIAZHUANG) CO., LTD., priority 2023, published 2024).

Experiments:
Format in all cases: cell-based
MKN45 = assay: Growth inhibition of gastric cancer cells MKN45 (CCK-8); conditions: Homo sapiens, MKN-45, half inhibitory concentration, 72 hours
Outline: (§1)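 MKN45 or SNU5 cells in 96-well plates were treated with compound dilution series in triplicate for 72 h. Viability was read by CCK-8 (1 h, absorbance 450 nm), and inhibition was calculated against blank and medium-only controls. IC50 came from concentration-response curves.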

SNU5 = assay: Growth inhibition of gastric cancer cells SNU5 (CCK-8); conditions: Homo sapiens, SNU-5, half inhibitory concentration, 72 hours
Outline: as §1

DDR1 = DDR1 (Homo sapiens, UniProt Q08345); assay: Degradation of DDR1 in tumor cell MKN45 (Western blot); parameters: The degradation activity of the compounds against DDR1 in the MKN45 cell line; endogenous in cells; host or cells: MKN45; conditions: MKN-45, maximum degradation percentage, MKN45 cells, 24 hours
Chain of DDR1 (Q08345 19-913): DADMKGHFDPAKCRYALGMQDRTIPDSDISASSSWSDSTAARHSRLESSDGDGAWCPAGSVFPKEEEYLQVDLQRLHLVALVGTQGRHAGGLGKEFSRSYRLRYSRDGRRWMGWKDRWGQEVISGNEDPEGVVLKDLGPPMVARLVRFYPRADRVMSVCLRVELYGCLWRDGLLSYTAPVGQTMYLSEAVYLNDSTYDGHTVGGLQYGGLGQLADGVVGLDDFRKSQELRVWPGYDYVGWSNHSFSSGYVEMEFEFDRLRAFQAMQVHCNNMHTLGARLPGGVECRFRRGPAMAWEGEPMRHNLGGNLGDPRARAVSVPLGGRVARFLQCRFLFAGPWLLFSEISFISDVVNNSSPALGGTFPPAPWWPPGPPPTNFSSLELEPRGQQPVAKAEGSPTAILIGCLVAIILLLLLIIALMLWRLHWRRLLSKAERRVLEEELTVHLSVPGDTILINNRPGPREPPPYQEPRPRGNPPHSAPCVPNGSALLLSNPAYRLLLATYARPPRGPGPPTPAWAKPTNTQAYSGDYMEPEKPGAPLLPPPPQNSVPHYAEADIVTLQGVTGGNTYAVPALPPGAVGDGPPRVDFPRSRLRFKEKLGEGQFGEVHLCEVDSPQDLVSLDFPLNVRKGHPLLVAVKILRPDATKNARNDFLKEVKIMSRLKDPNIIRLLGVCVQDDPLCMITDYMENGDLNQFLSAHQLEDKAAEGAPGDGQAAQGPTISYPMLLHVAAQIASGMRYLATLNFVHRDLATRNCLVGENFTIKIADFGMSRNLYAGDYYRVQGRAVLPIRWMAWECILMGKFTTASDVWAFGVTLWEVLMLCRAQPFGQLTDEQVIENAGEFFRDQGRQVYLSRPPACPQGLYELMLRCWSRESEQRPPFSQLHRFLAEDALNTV
Outline: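 MKN45 gastric cancer cells were treated with compound dilutions for 24 h at a final DMSO of 0.5%; the 2 mM–200 nM series is the added solution, not the final concentration. DDR1 in lysates was quantified by Western blot, normalized to GAPDH and expressed relative to blank control, giving DC50 and Dmax.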

| Compound | IC50 (MKN45) [nM] | IC50 (SNU5) [nM] | Dmax (DDR1) [%] |
| --- | --- | --- | --- |
| O=C1CCC(N2Cc3cc(NC(=O)CN4C[C@@H]5C[C@H]4CN5CC4CCN(c5cc6nccc(Oc7ccc(NC(=O)C8(C(=O)Nc9ccc(F)cc9)CC8)cc7)c6cc5F)CC4)ccc3C2=O)C(=O)N1 (stereo partly drawn) [TPD12205] | ≤ 100 | ≤ 100 | 65 to 75 |
| COc1cc2c(Oc3ccc(NC(=O)C4(C(=O)Nc5ccc(F)cc5)CC4)cc3)ccnc2cc1NC(=O)CN1CCC(CN2CCN(c3ccc4c(c3)C(=O)N(C3CCC(=O)NC3=O)C4=O)CC2)CC1 (stereo not drawn) [TPD5735] | 500 to 1000 | 100 to 500 | 75 to 85 |
| C[C@@H](Oc1cc(-c2cnn(C3CCN(CCN4CCN(c5ccc6c(c5)C(=O)N(C5CCC(=O)NC5=O)C6=O)CC4)CC3)c2)cnc1N)c1c(Cl)ccc(F)c1Cl (stereo partly drawn) [TPD10041] | 500 to 1000 | ≤ 100 | > 85 |
| COc1cc2c(Oc3ccc(NC(=O)C4(C(=O)Nc5ccc(F)cc5)CC4)cc3)ccnc2cc1N1CCC(CN2CCC(N3CCN(c4cccc5c4CN(C4CCC(=O)NC4=O)C5=O)CC3)CC2)CC1 (stereo not drawn) [TPD5907] | ≤ 100 | ≤ 100 | > 85 |
| COc1cc2c(Oc3ccc(NC(=O)C4(C(=O)Nc5ccc(F)cc5)CC4)cc3)ccnc2cc1N1CCC(C(=O)N[C@H](C(=O)N2C[C@H](O)C[C@H]2C(=O)NCc2ccc(-c3scnc3C)cc2)C(C)(C)C)CC1 [TPD5409] | 100 to 500 | 100 to 500 | 65 to 75 |
| O=C1CCC(N2Cc3c(C#CCCN4CC5CC(C4)N5CC4CCN(c5cc6nccc(Oc7ccc(NC(=O)C8(C(=O)Nc9ccc(F)cc9)CC8)cc7)c6cc5OC(F)(F)F)CC4)cccc3C2=O)C(=O)N1 (stereo not drawn) [TPD12150] | ≤ 100 | 100 to 500 | 65 to 75 |
| COc1cc2c(Oc3ccc(NC(=O)C4(C(=O)Nc5ccc(F)cc5)CC4)cc3)ccnc2cc1N1CCC(OCC(=O)N[C@H](C(=O)N2C[C@H](O)C[C@H]2C(=O)NCc2ccc(-c3scnc3C)cc2)C(C)(C)C)CC1 [TPD5411] | 100 to 500 | 100 to 500 | 75 to 85 |
| COc1cc2c(Oc3ccc(NC(=O)C4(C(=O)Nc5ccc(F)cc5)CC4)cc3)ccnc2c(F)c1N1CCC(CN2C3CC2CN(CCC(=O)Nc2cccc4c2CN(C2CCC(=O)NC2=O)C4=O)C3)CC1 (stereo not drawn) [TPD12140] | ≤ 100 | ≤ 100 | 65 to 75 |
| COc1cc2c(Oc3ccc(NC(=O)C4(C(=O)Nc5ccc(F)cc5)CC4)cc3)ccnc2cc1N1CCC(CN2CCN(CCNc3nccc4c3CN(C3CCC(=O)NC3=O)C4=O)C(=O)C2)CC1 (stereo not drawn) [TPD12068] | ≤ 100 | ≤ 100 | 65 to 75 |
| Cc1nc(CCN2CCC(CN3CCN(c4ccc5c(c4)C(=O)N(C4CCC(=O)NC4=O)C5=O)CC3)CC2)cc(Nc2ncc(C(=O)Nc3c(C)cccc3Cl)s2)n1 (stereo not drawn) [TPD10051] | ≤ 100 | 500 to 1000 | > 85 |
| COc1cc2c(Oc3ccc(NC(=O)C4(C(=O)Nc5ccc(F)cc5)CC4)cc3)ccnc2cc1NC(=O)CN1CCC(CN2CCN(c3ccc(N(C)C4CCC(=O)NC4=O)nc3F)CC2)CC1 (stereo not drawn) [TPD5760] | 100 to 500 | 100 to 500 | 65 to 75 |
| COc1cc2c(Oc3ccc(NC(=O)C4(C(=O)Nc5ccc(F)cc5)CC4)cc3)ccnc2cc1N1CCC(N2CCC(C(=O)N[C@H](C(=O)N3C[C@H](O)C[C@H]3C(=O)NCc3ccc(-c4scnc4C)cc3)C(C)(C)C)CC2)CC1 [TPD5420] | 1000 to 3000 | 500 to 1000 | 65 to 75 |
| COc1cc2c(Oc3ccc(NC(=O)C4(C(=O)Nc5ccc(F)cc5)CC4)cc3)ccnc2cc1N1CCC(CN2CCC(C(=O)N[C@H](C(=O)N3C[C@H](O)C[C@H]3C(=O)NCc3ccc(-c4scnc4C)cc3)C(C)(C)C)CC2)CC1 [TPD5402b] | ≤ 100 | ≤ 100 | 65 to 75 |
| COc1cc2c(Oc3ccc(NC(=O)C4(C(=O)Nc5ccc(F)cc5)CC4)cc3)ccnc2cc1N1CCC(C(=O)NCC(=O)N[C@H](C(=O)N2C[C@H](O)C[C@H]2C(=O)NCc2ccc(-c3scnc3C)cc2)C(C)(C)C)CC1 [TPD5452] | 1000 to 3000 | 1000 to 3000 | 65 to 75 |
